Laboratory results from patent US12473305B2, “Pyrazole boronic acid compound, pharmaceutical composition containing same, and uses thereof” (BEIJING SONGRUN PHARMACEUTICAL TECHNOLOGY CO., LTD., priority 2020, dated 2025).

Tested on: non-small cell lung cancer cell line A549
Test: CellTiter-Glo tumor cell proliferation, A549
Type: cell-based, human
Conditions: Homo sapiens, A549; CellTiter-Glo, 72 h
Procedure, shortened: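 Cells seeded at 2×10^4/mL, grown 24 h at 37° C, 5% CO2, then treated in triplicate with medium-diluted compound for 72 h. CellTiter-Glo luminescence read after 20 min at 37° C; inhibition versus untreated control RLU, IC50 calculated.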

- IC50: 3.05 µM
Structure (SMILES): CC(C)C[C@H](NC(=O)Cn1nc(-c2cccc(OCCN3CCOCC3)c2)cc1-c1ccccc1)B(O)O.Cl [Compound 30, (R)-(3-methyl-1-(2-(3-(3-(2-morpholinoethoxy)phenyl)-5-phenyl-1H-pyrazol-1-yl)-acetamido)butyl)boronic acid hydrochloride]
